From patent publication US20120077836A1, “METHODS OF ADMINISTERING (4AR,10AR)-1-N-PROPYL-1,2,3,4,4A,5,10,10A-OCTAHYDROBENZO [G] QUINOLINE-6,7-DIOL AND RELATED COMPOUNDS ACROSS THE ORAL MUCOSA, THE NASAL MUCOSA OR THE SKIN AND PHARMACEUTICAL COMPOSITIONS THEREOF” (priority 2009, published 2012)
Where “and” joins values, the source holds several entries; their conditions need not be identical. Equal entries are not always repeated. Structures can show the parent of a compound that is named as a salt. Where two headings read alike, the source gives them in different places.

Assay: Intravenous and buccal pharmacokinetic study in the minipig
Assay type: in vivo
Procedure: The test article was compound 10. The vehicles for the test article were Sterile saline (0.9% NaCl) (intravenous administration) supplied by Baxter, Norfolk or Ascorbic acid reconstituted in Water for Injection (buccal administration) supplied by VWR International, Leicestershire. Formulations were prepared on the day of dosing.
Three male minipigs of the Göttingen ApS strain were supplied by Ellegaard Göttingen, Dalmose, Denmark. At initiation of dosing, animals were approximately 15 to 17 weeks old. Each animal was dosed once on three separate occasions according to the following study design:
Animals were deprived of food overnight and anaesthetised with isoflurane in oxygen (administered by facemask), prior to each dosing occasion.
Intravenous administrations were performed by slow manual injection via a temporary catheter placed in the ear vein whilst under anaesthesia, animals were allowed to recover from the anaesthesia immediately after dosing. Whilst anaesthetised, a catheter was inserted into the jugular vein and secured in place for the purpose of blood collection. The catheter was filled with heparin (250 iu/mL in 0.9% sodium chloride). The exterior portion of the catheter was routed from the ventral neck to the dorsum of the minipig and protected by bandaging. The distal end of the catheter was capped and placed in a re-sealable pouch within the bandage. The jugular catheter was retained in place and flushed with heparinised saline every 24 hours.
Buccal administrations were performed by applying the test formulation to the buccal membrane for 5 minutes while the animal was anaesthetised. Any residual formulation remaining in the mouth after the 5 minute application was […]. Animals were allowed to recover from the anaesthesia immediately after dosing.
, all animals on Day 3 following buccal administration of a low dose and all animals on Day 5 following buccal administration of a high dose for pharmacokinetic analysis. The samples (1.0 mL) were collected from the jugular vein (via catheter) into tubes containing EDTA anticoagulant. Prior to addition of the blood sample, 100 microL of a stabiliser (2% beta-mercaptoethanol containing 20 mg/mL ascorbic acid) was added to each pot. The stabiliser was prepared fresh on each day of sample collection. Samples were collected as follows: • Day 1: 5, 10, 15, 30 and 45 minutes and 1, 2, 4, 6, 8, 12 and 16 hours post-dose • Day 3: pre-dose and at 5, 10, 15, 30 and 45 minutes and 1, 2, 4, 6, 8, 12, 16 and 24 hours post-dose • Day 5: pre-dose and at 5, 10, 15, 30 and 45 minutes and 1, 2, 4, 6, 8, 12, 16 and 24 hours post-dose
The times of the blood sampling were generally adhered to. The greatest deviation from the scheduled timepoints was one minute late at the 5 minute timepoint on Day 3. The blood samples were centrifuged within one hour of sample collection and the resultant plasma was frozen prior to analysis.
The plasma concentrations of compound 10 were determined after solid phase extraction of the plasma samples followed by high performance liquid chromatography with tandem mass spectrometric detection (LC-MS/MS) using a sample volume of about 100 microL.
Internal standard solution, containing the internal standard of compound 10 was added to thawed plasma samples (100 microL aliquot). The SPE plate (Oasis HLB, 10 mg) was conditioned with methanol (500 microL) followed by water (500 microL). The sample (approx. 500 microL aliquot) was transferred to the pre-conditioned SPE plate. The sample was then passed through the cartridge, which was then washed with water:methanol (90:10 v/v, 0.5 mL). The sample was then eluted into a fresh 96 well polypropylene collection plate with 20 mM ammonium formate (aq): acetonitrile: formic acid (50:50:2 v/v/v, 250 microL). The organic component of the eluted samples was then evaporated under a gentle stream of nitrogen until approximately 50% of the original volume was remaining. […]

[1] = IV 0.0025 mg/kg, individual animals 1-3, hydrobromide, 0.0025 mg/kg
[2] = buccal 0.010 mg/kg, individual animals 1-3, hydrobromide
[3] = buccal 40 μg/kg versus 10 μg/kg, males
[4] = buccal 0.040 mg/kg, individual animals 1-3, hydrobromide
[5] = buccal, 0.010 to 0.040 mg/kg (4-fold dose increase)

CCCN1CCC[C@@H]2Cc3c(ccc(O)c3O)C[C@H]21 [compound 10, (4aR,10aR)-1-n-Propyl-1,2,3,4,4a,5,10,10a-octahydro-benzo[g]quinoline-6,7-diol hydrobromide]
Plasma concentration Day 1 Hour 0.08 [1]: 1.72 ng/mL and 1.92 ng/mL
Plasma concentration Day 1 Hour 0.17 [1]: 0.976 ng/mL and 1.26 ng/mL
Plasma concentration Day 1 Hour 0.25 [1]: 1.17 ng/mL and 0.828 ng/mL
Plasma concentration Day 1 Hour 0.5 [1]: 0.922 ng/mL and 0.536 ng/mL
Plasma concentration Day 1 Hour 0.75 [1]: 0.656 ng/mL and 0.667 ng/mL
Plasma concentration Day 1 Hour 1 [1]: 0.432 ng/mL and 0.451 ng/mL
Plasma concentration Day 1 Hour 2 [1]: 0.196 ng/mL and 0.352 ng/mL
Plasma concentration Day 1 Hour 4 [1]: 0.0763 ng/mL and 0.115 ng/mL
Plasma concentration Day 1 Hour 6 [1]: 0.0562 ng/mL and 0.0756 ng/mL
Plasma concentration Day 1 Hour 8 [1]: 0.0339 ng/mL and 0.0407 ng/mL
Plasma concentration Day 1 Hour 12 [1]: 0.0299 ng/mL and 0.0209 ng/mL
Plasma concentration Day 1 Hour 16 (IV 0.0025 mg/kg, individual animals 1-3, values below LLOQ 10 pg/mL estimated, hydrobromide, 0.0025 mg/kg): 0.00925 ng/mL and 0.0101 ng/mL
time of maximum plasma concentration (IV bolus 0.0025 mg/kg, first sampling time): 5 min
time of maximum plasma concentration (buccal 0.010 mg/kg and 0.040 mg/kg): about 0.75 hours
Plasma concentration Day 1 Hour 4 [2]: 0.0983 ng/mL and 0.0917 ng/mL and 0.206 ng/mL
Plasma concentration Day 1 Hour 6 [2]: 0.0845 ng/mL and 0.0265 ng/mL and 0.0758 ng/mL
Plasma concentration Day 1 Hour 8 [2]: 0.0467 ng/mL and 0.0261 ng/mL and 0.0554 ng/mL
Plasma concentration Day 1 Hour 12 [2]: 0.0268 ng/mL and 0.0234 ng/mL and 0.157 ng/mL
Plasma concentration Day 3 Hour 0.08 [2]: 0.0161 ng/mL and 0.379 ng/mL and 0.0552 ng/mL
Plasma concentration Day 3 Hour 0.17 [2]: 0.117 ng/mL and 0.105 ng/mL and 0.221 ng/mL
Plasma concentration Day 3 Hour 0.25 [2]: 0.134 ng/mL and 0.185 ng/mL and 0.622 ng/mL
Plasma concentration Day 3 Hour 0.5 [2]: 0.758 ng/mL and 0.556 ng/mL
Plasma concentration Day 3 Hour 0.75 [2]: 1.1 ng/mL and 0.964 ng/mL
Plasma concentration Day 3 Hour 1 [2]: 0.791 ng/mL and 0.817 ng/mL
Plasma concentration Day 3 Hour 2 [2]: 0.501 ng/mL and 0.372 ng/mL
Plasma concentration Day 1 Hour 24 (buccal 0.010 mg/kg, individual animals 1-3, values below LLOQ 10 pg/mL estimated, hydrobromide): <0.002 ng/mL and 0.00494 ng/mL and 0.0261 ng/mL
Increase in AUC0-∞ (first line) [3]: 12.1 fold
Increase in AUC0-∞ (second line) [3]: 18.9 fold
increase in Cmax [3]: 11.9 fold
Plasma concentration Day 1 Hour 4 [4]: 2.56 ng/mL and 0.746 ng/mL and 2.49 ng/mL
Plasma concentration Day 1 Hour 6 [4]: 0.781 ng/mL and 0.278 ng/mL and 1.73 ng/mL
Plasma concentration Day 1 Hour 8 [4]: 0.445 ng/mL and 0.212 ng/mL and 0.91 ng/mL
Plasma concentration Day 1 Hour 12 [4]: 0.272 ng/mL and 0.139 ng/mL and 1.4 ng/mL
Plasma concentration Day 1 Hour 16 [4]: 0.142 ng/mL and 0.0584 ng/mL and 0.677 ng/mL
Plasma concentration Day 1 Hour 24 [4]: 0.0443 ng/mL and 0.0789 ng/mL and 0.233 ng/mL
Plasma concentration Day 5 Hour 0.08 [4]: 2.75 ng/mL and 0.695 ng/mL and 0.427 ng/mL
Plasma concentration Day 5 Hour 0.17 [4]: 6.06 ng/mL and 1.93 ng/mL and 1.82 ng/mL
Plasma concentration Day 5 Hour 0.25 [4]: 9.14 ng/mL and 3.33 ng/mL and 3.89 ng/mL
Plasma concentration Day 5 Hour 0.5 [4]: 8.23 ng/mL and 5.31 ng/mL
Plasma concentration Day 5 Hour 0.75 [4]: 10.7 ng/mL and 10.5 ng/mL
Plasma concentration Day 5 Hour 1 [4]: 10.8 ng/mL and 9.58 ng/mL
Plasma concentration Day 5 Hour 2 [4]: 8.68 ng/mL and 6.34 ng/mL and 3.88 ng/mL
increase in AUC0-∞ [5]: 12 fold
increase in Cmax [5]: 12 fold
concentration at 0.5 h (male, Göttingen, in vivo, 0.01 mg/kg, buccal 0.010 mg/kg, individual animals 1-3, read-out: Plasma concentration Day 3 Hour 0.5): 0.943 ng/mL
concentration at 0.75 h (male, Göttingen, in vivo, 0.01 mg/kg, buccal 0.010 mg/kg, individual animals 1-3, read-out: Plasma concentration Day 3 Hour 0.75): 1.07 ng/mL
concentration at 1 h (male, Göttingen, in vivo, 0.01 mg/kg, buccal 0.010 mg/kg, individual animals 1-3, read-out: Plasma concentration Day 3 Hour 1): 1 ng/mL
concentration at 2 h (male, Göttingen, in vivo, 0.01 mg/kg, buccal 0.010 mg/kg, individual animals 1-3, read-out: Plasma concentration Day 3 Hour 2): 0.589 ng/mL
concentration at 16 h (male, Göttingen, in vivo, 0.01 mg/kg, buccal 0.010 mg/kg, individual animals, below LLOQ 10 pg/mL, estimated, read-out: Plasma concentration Day 1 Hour 16): 0.00691 ng/mL
concentration at 16 h (male, Göttingen, in vivo, 0.01 mg/kg, buccal 0.010 mg/kg, mean (one animal only), read-out: Plasma concentration Day 1 Hour 16, Mean): 0.00691 ng/mL
concentration at 4 h (male, Göttingen, in vivo, 0.01 mg/kg, buccal 0.010 mg/kg, mean, read-out: Plasma concentration Day 1 Hour 4, Mean): 0.132 ng/mL
concentration at 6 h (male, Göttingen, in vivo, 0.01 mg/kg, buccal 0.010 mg/kg, mean, read-out: Plasma concentration Day 1 Hour 6, Mean): 0.0623 ng/mL
concentration at 8 h (male, Göttingen, in vivo, 0.01 mg/kg, buccal 0.010 mg/kg, mean, read-out: Plasma concentration Day 1 Hour 8, Mean): 0.0427 ng/mL
concentration at 12 h (male, Göttingen, in vivo, 0.01 mg/kg, buccal 0.010 mg/kg, mean, read-out: Plasma concentration Day 1 Hour 12, Mean): 0.0691 ng/mL
concentration at 24 h (male, Göttingen, in vivo, 0.01 mg/kg, buccal 0.010 mg/kg, mean, read-out: Plasma concentration Day 1 Hour 24, Mean): 0.0155 ng/mL
concentration at 0.08 h (male, Göttingen, in vivo, 0.01 mg/kg, buccal 0.010 mg/kg, mean, read-out: Plasma concentration Day 3 Hour 0.08, Mean): 0.15 ng/mL
